Entries after “also recorded” stand apart in the source; their conditions may differ.
Key:
U87 = assay: MTT cell growth inhibition, U87; format: cell-based, Human; conditions: 72 h, n = 3
Description: (§1) Human GBM cell lines U87 and LN-229 were purchased from the American Type Culture Collection, Rockville, MD, USA. U87-TxR cells were selected from U87 cells by continuous exposure to increasing concentrations of PTX [76]. LN-299, U87 and U87-TxR cells were grown in Minimum Essential Medium with 10% fetal bovine serum, 2 mM L-glutamine and 5000 U/mL penicillin, 5 mg/mL streptomycin solution. Cell lines were maintained at 37 °C in a humidified 5% CO2 atmosphere. They were sub-cultured at 72 h intervals using 0.25% trypsin/EDTA and 16,000 cells/cm^2 were seeded into a fresh medium.
(§2) MTT assay was used to assess the viability of U87 and U87-TxR cells (AppliChem GmbH, Taufkirchen, Germany). After reaching the confluence in 25 cm^2 tissue flasks, U87 and U87-TxR cells were trypsinized. Cells were seeded at the optimal density determined in initial experiments: 4000 cell/well into flat-bottomed 96-well tissue culture plates. Following the overnight incubation, cells were treated with Si306, pro-Si306 and dasatinib (1–25 µM) for 72 h. In addition, the combined effects of Si306 and pro-Si306 with PTX were evaluated in MDR GBM cells. To that end, two concentrations of Si306 and pro-Si306 (0.2 μM and 0.5 μM) were combined with increasing concentrations of PTX (0.1–2 μM) in simultaneous treatment. The sensitization of U87-TxR cells to PTX was studied after 72 h. Briefly, MTT was added to each well in a final concentration of 0.2 mg/mL for 4 h to induce the formation of the formazan in cells with intact/viable mitochondria. Then, produced formazan was dissolved in DMSO, and the absorbance was measured at 540 nm on a microplate reader (LKB 5060-006 Micro Plate Reader, Vienna, Austria). IC50 values were calculated by nonlinear regression analysis using GraphPad Prism 6.0 for Windows (GraphPad Software, La Jolla, CA, USA).

U87-TxR = assay: MTT cell growth inhibition, MDR U87-TxR; format: cell-based, Human; conditions: 72 h, n = 3
Description: as §1, §2

LN-229 = assay: MTT cell growth inhibition, LN-229; format: cell-based, Human; conditions: LN-229, MTT, n = 3
BT-138 = assay: Cell viability, BT-138 (Table S1); format: cell-based; conditions: BT-138, 24 h
Description: (§3) 1. Cell Growth Inhibition by Dasatinib, Si306 and Pro-Si306
(§4) GB cell lines BT138, T98G and A172 were treated with Si306 and pro-Si306 at concentrations ranging from 1 to 100 µM, or with DMSO as a control. Cell viability was evaluated 72 h after treatment for T98G and A172 cell lines and after 24 h for BT-138. In table S1 the IC50 values are reported.
(§5) Table S1. Sensitivity of glioblastoma multiforme (GBM) cells to Si306 and pro-Si306 expressed as IC50 […]
(§6) Figure S1. Rho 123 accumulation in U87-TxR cells treated with increasing concentrations of TQ (A), Dex-VER (B), Si306 (C) and pro-Si306 (D).
(§7) (1 picture or pasted object on this page, not shown here)

A172 = assay: Cell viability, A172 (Table S1); format: cell-based; conditions: Homo sapiens, A 172; A172, 72 h
Description: as §3, §4, §5, §6, §7

U87-TxR cells = assay: Reversal of paclitaxel resistance, MTT combination treatment; format: cell-based, Human; conditions: 0.2 µM of the compound, 72 h
Description: as §2

[1] = target: Human Serum Albumin (HSA) (Homo sapiens, UniProt P02768); assay: Binding fluorimetric assay, HSA; format: in vitro ADME
Human Serum Albumin (HSA), sequence (P02768 25-609): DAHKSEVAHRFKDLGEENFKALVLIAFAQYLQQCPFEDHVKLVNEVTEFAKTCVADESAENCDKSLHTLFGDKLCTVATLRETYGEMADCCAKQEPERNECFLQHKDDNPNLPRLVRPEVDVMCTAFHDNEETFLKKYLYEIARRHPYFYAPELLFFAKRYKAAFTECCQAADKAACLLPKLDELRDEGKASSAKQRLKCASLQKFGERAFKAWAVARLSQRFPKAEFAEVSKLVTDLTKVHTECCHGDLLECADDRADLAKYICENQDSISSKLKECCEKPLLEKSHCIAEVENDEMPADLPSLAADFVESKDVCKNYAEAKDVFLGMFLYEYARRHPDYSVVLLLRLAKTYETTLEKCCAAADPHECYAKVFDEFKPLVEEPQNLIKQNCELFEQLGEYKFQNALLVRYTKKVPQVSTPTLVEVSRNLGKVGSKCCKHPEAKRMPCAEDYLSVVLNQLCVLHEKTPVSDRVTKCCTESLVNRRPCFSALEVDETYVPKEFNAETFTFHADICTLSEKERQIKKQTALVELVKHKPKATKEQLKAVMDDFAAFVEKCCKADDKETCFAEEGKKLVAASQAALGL
Description: (§8) In order to determine the binding affinity for Si306 and pro-Si306 to HSA (human serum albumin) and AGP (alpha-1-acid glycoprotein), the protein fluorescence has been monitored by spectroscopy. The quantitative analysis was performed using black 96 multiwell plates: in each well, a fixed concentration of HSA or AGP (10 µM in phosphate buffer 1 mM) was added with different amounts of the tested compound (0.1 µM to 500 µM). Plates were gently shacked and after 30 min at room temperature for equilibration, spectra were recorded from 300 to 400 nm, after excitation at 295 nm, by using a Perkin Elmer EnVision Multilabel Reader 2014 spectrofluorimeter. Finally, spectra were acquired with EnVision Manager ver.1.13 software (Walthman, MA, USA). The obtained non fluorescence quenching percentages were plotted against drug concentrations and the relative KD values were calculated using GraphPad software (version 6.0).

[2] = tested on: Alpha-1-acid glycoprotein (AGP); assay: Binding fluorimetric assay, AGP; format: in vitro ADME; conditions: 10 µM AGP, fluorescence quenching
Description: as §8

U87 cells = tested on: U87 cells; parameters: method as in PMID 28650650; conditions: single oral treatment, mice orthotopically injected with U87 cells; cited from earlier work
[3] = parameters: method as in PMID 28650650; conditions: cited from earlier work
P-gp = P-gp (Homo sapiens, UniProt P08183); assay: Rho 123 accumulation assay (P-gp inhibition) in U87-TxR cells; conditions: 30 min
P-gp, sequence (P08183 whole entry): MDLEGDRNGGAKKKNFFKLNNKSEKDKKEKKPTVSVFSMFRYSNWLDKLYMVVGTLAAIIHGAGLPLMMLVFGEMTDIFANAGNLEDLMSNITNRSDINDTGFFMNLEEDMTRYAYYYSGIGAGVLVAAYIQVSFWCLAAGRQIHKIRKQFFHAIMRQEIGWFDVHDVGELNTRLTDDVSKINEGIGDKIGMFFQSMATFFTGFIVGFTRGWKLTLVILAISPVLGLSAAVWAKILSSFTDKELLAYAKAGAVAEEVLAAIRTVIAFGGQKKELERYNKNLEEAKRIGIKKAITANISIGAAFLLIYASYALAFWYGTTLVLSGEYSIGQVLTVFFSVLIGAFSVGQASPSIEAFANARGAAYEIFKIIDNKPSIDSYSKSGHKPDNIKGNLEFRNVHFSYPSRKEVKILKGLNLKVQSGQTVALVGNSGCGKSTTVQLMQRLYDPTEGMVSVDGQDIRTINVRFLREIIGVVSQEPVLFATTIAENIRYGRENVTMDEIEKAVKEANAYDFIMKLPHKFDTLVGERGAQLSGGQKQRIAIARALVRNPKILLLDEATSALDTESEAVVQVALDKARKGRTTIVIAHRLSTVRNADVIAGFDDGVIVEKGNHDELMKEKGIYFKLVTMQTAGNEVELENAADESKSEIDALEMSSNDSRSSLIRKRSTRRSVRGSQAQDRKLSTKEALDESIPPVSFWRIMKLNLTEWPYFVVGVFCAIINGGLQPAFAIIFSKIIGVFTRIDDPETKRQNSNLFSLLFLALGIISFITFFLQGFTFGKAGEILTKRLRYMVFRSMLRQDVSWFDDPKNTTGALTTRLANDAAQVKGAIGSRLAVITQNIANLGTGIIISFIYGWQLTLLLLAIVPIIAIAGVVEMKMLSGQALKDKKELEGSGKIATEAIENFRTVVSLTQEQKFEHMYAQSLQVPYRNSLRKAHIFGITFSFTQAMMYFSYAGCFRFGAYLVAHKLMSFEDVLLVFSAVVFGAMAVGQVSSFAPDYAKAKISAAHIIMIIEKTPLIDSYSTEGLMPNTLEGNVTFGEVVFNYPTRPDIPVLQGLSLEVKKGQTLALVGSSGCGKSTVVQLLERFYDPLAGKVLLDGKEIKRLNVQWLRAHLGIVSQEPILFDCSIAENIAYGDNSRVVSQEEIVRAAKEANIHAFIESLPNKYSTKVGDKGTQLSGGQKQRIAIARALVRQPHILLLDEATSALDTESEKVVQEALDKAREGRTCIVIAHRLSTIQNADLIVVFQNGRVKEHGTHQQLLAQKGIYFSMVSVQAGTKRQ
Description: At the end of the accumulation period, the cells were pelleted by centrifugation, washed with PBS and placed in cold PBS. The samples were kept on ice in a dark setting until the analysis on CyFlow Space Partec flow-cytometer (Sysmex Partec GmbH, Germany). […] A minimum of 10,000 events was assayed for each sample and the obtained results were analyzed using Summit Dako Software (ver. 4.3, Fort Collins, CO, USA).

[4] = 10 µM HSA, fluorescence quenching

Compound `ClC(Cn1ncc2c(Nc3cccc(Br)c3)nc(SCCN3CCOCC3)nc21)c1ccccc1` (stereo not drawn) [Si306] has an IC50 (U87) of 3.08 ± 0.26 µM, an IC50 (U87; Homo sapiens, U-87 MG) of roughly 3 µM and an IC50 (U87-TxR) of 4.78 ± 0.322 µM. It also gave an IC50 (U87-TxR; Homo sapiens, U87-TxR) of 4.8 µM, an IC50 (LN-229; Homo sapiens, LN-229, 72 h) of 8 µM and an IC50 (LN-229; 72 h) of 8.01 ± 0.574 µM. The IC50 (BT-138) was 72.6 ± 6.21 µM, the IC50 (A172) was 1.69 ± 0.6 µM and the “Relative Reversal of PTX resistance” value (U87-TxR cells) was 1.16 ^ns. The BMAX [1, 4] was 61.05 ± 2.8, the Kd [1, 4] was 0.35 ± 0.1 µM and the “affinity for albumin, fold greater than pro-Si306” value ([1]; HSA) was 60 fold. The BMAX [2] was 88.38 ± 1.8, the Kd at 30 min ([2]; alpha-1-acid glycoprotein (10 µM) in phosphate buffer) was 11.5 ± 1 µM and the prolongation of survival (U87 cells) was 30%. The solubility [3] was “very poorly water soluble”, the “P-gp activity (Rho 123 intracellular accumulation)” value (P-gp; 5 µM) was “considerably inhibited P-gp activity; also recorded: significant suppression of P-gp activity” and the IC50 (P-gp; IC50 of P-gp inhibition, Rho 123 accumulation) was 8.5 µM.

— publication PMC6628362, “A New Strategy for Glioblastoma Treatment: In Vitro and In Vivo Preclinical Characterization of Si306, a Pyrazolo[3,4-d]Pyrimidine Dual Src/P-Glycoprotein Inhibitor” (Cancers, 2019)
